Measured values taken from ChEMBL document CHEMBL3608295, “Antimicrobial activity of doubly-stapled alanine/lysine-based peptides” (Bioorg Med Chem Lett, 2015).
Converted amounts (≈) assume the structure as drawn. Starred links: 1 amine or outer side, 2 acyl side, 3 side chain; linkers in the order of their positions; H or OH if unused. Positions of bridges follow the written chain, without caps; N, C: chain ends. Non-standard residues stand in square brackets, D forms with d. Residues, ends and D or L forms follow the SMILES beside them. R5 = C=CCCC[C@@](C)(N)C(=O)O; Suc = O=C(CCC(=O)[*:2])[*:1]

Legend:
trypsin [1] = assay: (§1) Stability of the compound assessed as trypsin (unknown origin)-mediated compound degradation at substrate/enzyme ratio of 1600/1 at 25 degC after 10 mins by HPLC analysis; assay type: ADME; settings: human, trypsin (unknown origin); read-out: Drug degradation
Bacillus spizizenii = assay: Antimicrobial activity against Bacillus subtilis ATCC 6633 after 24 hrs by broth microdilution method; assay type: functional; settings: ATCC 6633, 24 h
Shigella dysenteriae = assay: Antimicrobial activity against Shigella dysenteriae ATCC 9752 after 24 hrs by broth microdilution method; assay type: functional; settings: ATCC 9752, 24 h
Pseudomonas aeruginosa = assay: Antimicrobial activity against Pseudomonas aeruginosa ATCC 27853 after 24 hrs by broth microdilution method; assay type: functional; settings: ATCC 27853, 24 h
Escherichia coli = assay: Antimicrobial activity against Escherichia coli ATCC 25922 after 24 hrs by broth microdilution method; assay type: functional; settings: ATCC 25922, 24 h
[2] = system: Staphylococcus epidermidis; assay: Antimicrobial activity against Staphylococcus epidermidis ATCC 12228 after 24 hrs by broth microdilution method; assay type: functional; settings: ATCC 12228, 24 h
Salmonella typhimurium = assay: Antimicrobial activity against Salmonella typhimurium ATCC 14028 after 24 hrs by broth microdilution method; assay type: functional, Salmonella enterica subsp. enterica serovar Typhimurium; settings: Salmonella enterica, ATCC 14028, 24 h
Klebsiella pneumoniae = assay: Antimicrobial activity against Klebsiella pneumoniae ATCC 10031 after 24 hrs by broth microdilution method; assay type: functional; settings: ATCC 10031, 24 h
Staphylococcus aureus = assay: Antimicrobial activity against Staphylococcus aureus ATCC 6538p after 24 hrs by broth microdilution method; assay type: functional
[3] = Hemolytic activity in human RBC at 25 uM after 30 mins relative to control; assay type: ADME, cell-based, Erythrocyte; settings: human red blood cells (RBC), read-out: Activity
[4] = Hemolytic activity in human RBC at 12.5 uM after 30 mins relative to control; assay type: ADME, cell-based, Erythrocyte; settings: human red blood cells (RBC), read-out: Activity
trypsin [5] = assay: Stability of the compound assessed as trypsin (unknown origin)-mediated compound degradation by measuring compound remaining at substrate/enzyme ratio of 1600/1 at 25 degC after 60 mins by HPLC analysis; assay type: ADME; settings: human, read-out: Stability
[6] = as §1; assay type: ADME; settings: human, 10 min

| Molecule | metabolised at 10 min (trypsin [1]) [%] | MIC (Bacillus spizizenii) [µg/mL] | MIC (Shigella dysenteriae) [µg/mL] | MIC (Pseudomonas aeruginosa) [µg/mL] | MIC (Escherichia coli) [µg/mL] | MIC [2] [µg/mL] | MIC (Salmonella typhimurium) [µg/mL] | MIC (Klebsiella pneumoniae) [µg/mL] | MIC (Staphylococcus aureus) [µg/mL] | hemolysis at 0.5 h, 25 µM [3] [%] | hemolysis at 0.5 h, 12.5 µM [4] [%] | remaining at 1 h (trypsin [5]) [%] | Stability [6] |
| --- | --- | --- | --- | --- | --- | --- | --- | --- | --- | --- | --- | --- | --- |
| CC(=O)N[C@@H](CCCCN)C(=O)N[C@]1(C)CCC/C=C\CCC[C@](C)(C(=O)N[C@@H](CCCCN)C(=O)N[C@@H](CCCCN)C(=O)N[C@@H](C)C(=O)N[C@@H](C)C(=O)N[C@@H](CCCCN)C(=O)N[C@@H](C)C(=O)N[C@@H](C)C(=O)N[C@@H](Cc2c[nH]c3ccccc23)C(=O)N[C@@H](CCCCN)C(N)=O)NC(=O)[C@H](C)NC(=O)[C@H](CCCCN)NC(=O)[C@H](C)NC1=O (Ac-K[R5]AKA[R5]KKAAKAAWK-NH2; staple (Z) 2-6) | 73 | 25 (≈ 14.8 µM) | 18.8 (≈ 11.1 µM) | 100 (≈ 59.1 µM) | 3.1 (≈ 1.83 µM) | 75 (≈ 44.3 µM) | > 200 | 18.8 (≈ 11.1 µM) | 9.4 (≈ 5.56 µM) | < 1 | < 1 | – | – |
| CC(=O)N[C@@H](CCCCN)C(=O)N[C@]1(C)CCC/C=C\CCC[C@](C)(C(=O)N[C@@H](CCCCN)C(=O)N[C@@H](CCCCN)C(=O)N[C@]2(C)CCC/C=C\CCC[C@](C)(C(=O)N[C@@H](Cc3c[nH]c4ccccc34)C(=O)N[C@@H](CCCCN)C(N)=O)NC(=O)[C@H](C)NC(=O)[C@H](CCCCN)NC(=O)[C@H](C)NC2=O)NC(=O)[C@H](C)NC(=O)[C@H](CCCCN)NC(=O)[C@H](C)NC1=O (Ac-K[R5]AKA[R5]KK[R5]AKA[R5]WK-NH2; staple (Z) 2-6, 9-13) | – | 1.6 (≈ 0.889 µM) | 25 (≈ 13.9 µM) | 100 (≈ 55.6 µM) | 25 (≈ 13.9 µM) | 3.1 (≈ 1.72 µM) | 100 (≈ 55.6 µM) | 200 (≈ 111 µM) | 4.8 (≈ 2.67 µM) | 38.8 | 22.1 | > 85 | – |
| CC(=O)N[C@@H](CCCCN)C(=O)N[C@]1(C)CCC/C=C\CCC[C@](C)(C(=O)N[C@@H](CCCCN)C(=O)N[C@@H](CCCCN)C(=O)N[C@]2(C)CCC/C=C\CCC[C@](C)(C(=O)N[C@@H](C)C(=O)N[C@@H](CCCCN)C(N)=O)NC(=O)[C@H](Cc3c[nH]c4ccccc34)NC(=O)[C@H](CCCCN)NC(=O)[C@H](C)NC2=O)NC(=O)[C@H](C)NC(=O)[C@H](CCCCN)NC(=O)[C@H](C)NC1=O (Ac-K[R5]AKA[R5]KK[R5]AKW[R5]AK-NH2; staple (Z) 2-6, 9-13) | – | 1.6 (≈ 0.889 µM) | 50 (≈ 27.8 µM) | 100 (≈ 55.6 µM) | 50 (≈ 27.8 µM) | 4.8 (≈ 2.67 µM) | 200 (≈ 111 µM) | 100 (≈ 55.6 µM) | 3.1 (≈ 1.72 µM) | 42.5 | 25.3 | – | – |
| CC(=O)N[C@@H](CCCCN)C(=O)N[C@]1(C)CCC/C=C\CCC[C@](C)(C(=O)N[C@@H](CCCCN)C(=O)N[C@@H](CCCCN)C(=O)N[C@]2(C)CCC/C=C\CCC[C@](C)(C(=O)N[C@@H](C)C(=O)N[C@@H](CCCCN)C(N)=O)NC(=O)[C@H](C)NC(=O)[C@H](CCCCN)NC(=O)[C@H](C)NC2=O)NC(=O)[C@H](Cc2c[nH]c3ccccc23)NC(=O)[C@H](CCCCN)NC(=O)[C@H](C)NC1=O (Ac-K[R5]AKW[R5]KK[R5]AKA[R5]AK-NH2; staple (Z) 2-6, 9-13) | – | 1.6 (≈ 0.889 µM) | 25 (≈ 13.9 µM) | 25 (≈ 13.9 µM) | 18.8 (≈ 10.4 µM) | 1.6 (≈ 0.889 µM) | 37.5 (≈ 20.8 µM) | 37.5 (≈ 20.8 µM) | 1.6 (≈ 0.889 µM) | 38.5 | 22 | – | – |
| CC(=O)N[C@@H](CCCCN)C(=O)N[C@]1(C)CCC/C=C\CCC[C@](C)(C(=O)N[C@@H](CCCCN)C(=O)N[C@@H](CCCCN)C(=O)N[C@]2(C)CCC/C=C\CCC[C@](C)(C(=O)N[C@@H](C)C(=O)N[C@@H](CCCCN)C(N)=O)NC(=O)[C@H](C)NC(=O)[C@H](CCCCN)NC(=O)[C@H](C)NC2=O)NC(=O)[C@H](C)NC(=O)[C@H](CCCCN)NC(=O)[C@H](Cc2c[nH]c3ccccc23)NC1=O (Ac-K[R5]WKA[R5]KK[R5]AKA[R5]AK-NH2; staple (Z) 2-6, 9-13) | – | 3.1 (≈ 1.72 µM) | 50 (≈ 27.8 µM) | 200 (≈ 111 µM) | 25 (≈ 13.9 µM) | 4.8 (≈ 2.67 µM) | 100 (≈ 55.6 µM) | 100 (≈ 55.6 µM) | 4.8 (≈ 2.67 µM) | 42.5 | 28.9 | – | – |
| C[C@@H]1NC(=O)[C@H](CCCCN)NC(=O)[C@H](C)NC(=O)[C@](C)(NC(=O)[C@H](CCCCN)NC(=O)[C@H](CCCCN)NC(=O)[C@@]2(C)CCC/C=C\CCC[C@@](C)(NC(=O)[C@@H](N)CCCCN)C(=O)N[C@@H](C)C(=O)N[C@@H](CCCCN)C(=O)N[C@@H](Cc3c[nH]c4ccccc34)C(=O)N2)CCC/C=C\CCC[C@](C)(C(=O)N[C@@H](C)C(=O)N[C@@H](CCCCN)C(N)=O)NC1=O (H-K[R5]AKW[R5]KK[R5]AKA[R5]AK-NH2; staple (Z) 2-6, 9-13) | – | 1.6 (≈ 0.91 µM) | 12.5 (≈ 7.11 µM) | 6.3 (≈ 3.59 µM) | 3.1 (≈ 1.76 µM) | 1.6 (≈ 0.91 µM) | 6.3 (≈ 3.59 µM) | 12.5 (≈ 7.11 µM) | 1.6 (≈ 0.91 µM) | 25.5 | 13.5 | – | – |
| C[C@@H]1NC(=O)[C@H](CCCCN)NC(=O)[C@H](C)NC(=O)[C@](C)(NC(=O)[C@H](CCCCN)NC(=O)[C@H](CCCCN)NC(=O)[C@@]2(C)CCC/C=C\CCC[C@@](C)(NC(=O)[C@H](CCCCN)NC(=O)CCC(=O)O)C(=O)N[C@@H](C)C(=O)N[C@@H](CCCCN)C(=O)N[C@@H](Cc3c[nH]c4ccccc34)C(=O)N2)CCC/C=C\CCC[C@](C)(C(=O)N[C@@H](C)C(=O)N[C@@H](CCCCN)C(N)=O)NC1=O (Suc-K[R5]AKW[R5]KK[R5]AKA[R5]AK-NH2; staple (Z) 2-6, 9-13) | – | 1.6 (≈ 0.861 µM) | 50 (≈ 26.9 µM) | 50 (≈ 26.9 µM) | 12.5 (≈ 6.73 µM) | 1.6 (≈ 0.861 µM) | > 200 | 25 (≈ 13.5 µM) | 1.6 (≈ 0.861 µM) | 32.6 | 19.5 | – | – |
| Ac-KAAKAAKKAAKAAWK-NH2 | – | > 200 | > 200 | > 200 | > 200 | > 200 | > 200 | > 200 | > 200 | < 1 | < 1 | – | Unstable |
